Experimental data from patent publication US9315544B2, “Method of treating eosinophilia by administering an immunomodulating peptide” (National Tsing Hua University, priority 2012, dated 2016).

Test system: inflammatory cell recruitment into the airways
Assay: Differential cell counts in bronchoalveolar lavage fluid (BALF)
Assay type: in vivo, BALB/c mouse
Source text: FIG. 4 illustrates experimental design. All groups except control group were immunized with mite crude extract allergen on days 1 and 8, then mite crude extract allergen intratracheally on day 15 in all mite treated group, BALB/c mouse were divided into six groups (1) control group (PBS), (2) mites delivered intratracheally (mIT, mite on day 15) alone, (3) CMP intranasal (eIN, CMP on days 1 to 22) alone, (4) preventive-treatment group (eIN+mIT, CMP on days 1 to 14, mite on day 15) (5) therapy-treatment group (mIT+eIN, mite on day 15, CMP on days 15 to 22), and (6) preventive- and therapeutic-treatment group (eIN+mIT+eIN, CMP on days 1 to 22, mite on day 15).
FIG. 7 illustrates inhibitory effect of CMP on cell response in bronchoalveolar lavage fluid (BALF). BALF were collected from all experimental groups of mice. Cell populations were identified on air-dried cytocentrifuged smears after staining with Diff-Quuick stain. Differential cell counts were performed on a minimum of 300 cells to identify macrophages, eosinophils, segment or lymphocytes. Data represent one of three independent experiments. Each result was expressed as the mean±S.D., n=4. ***, P<0.001.
Mice were divided into six groups: 1) control (n=10), 2) mite crude extract allergen delivered intratracheally (mIT) alone (n=10), 3) CMP intranasal (eIN) alone (n=12), 4) preventive-treatment group (eIN+mIT; n=12), 5) therapeutic-treatment group (mIT+eIN; n=12), and 6) preventive- and therapeutic-treatment group (eIN+mIT+eIN; n=18) (FIG. 4). All groups receiving mIT were immunized with mite crude extract allergen on days 1 and 8 and then given mite crude extract allergen intratracheally on day 15. The cIN and eIN+mIT+eIN groups received cIN from days 1 to 22, the cIN+mIT group received eIN from days 1 to 15 (before mIT), and the mIT+eIN group received eIN from days 15 (post-mIT) to 22. All mice were sacrificed on day 23. The animal use protocol was reviewed and approved by Institutional Animal Care and Use Committee (IACUC Approval No: La-95279).
The trachea was exposed and cannulated. Two washings, each consisting of 1.0 ml of phosphate-buffered saline, were introduced into the lungs via the cannula and withdrawn to collect the cells. Bronchoalveolar lavage fluid (BALF) from each wash was placed in polypropylene tubes on ice. The collected BALF was then centrifuged at 300×g for 7 min at 4° C. […] Total cell numbers were counted on a hemocytometer, and 1−5×10^3 cells were spun onto glass microscope slides (cytospin, Shandon Scientific, Cheshire, UK). […] The number of cells recovered was calculated and expressed as absolute cell numbers.
To identify the extent of inflammatory cell recruitment into the airways under allergen challenge circumstance, the amount of inflammatory cell were measured in BALF. […]

NYRWRCKNQN (CMP)
lower: eosinophil count in BALF compared with mIT group (eIN+mIT group) | eosinophil count in BALF compared with mIT group (eIN+mIT+eIN group) | lymphocyte count in BALF compared with mIT group (eIN+mIT+eIN group) | macrophage count in BALF compared with mIT group (eIN+mIT+eIN group)
